# Data from patent US8729048B2, “Methods and materials for assessing responsiveness to PARP inhibitors and platinating agents” (Mayo Foundation for Medical Education and Research, priority 2011, dated 2014).
# What was measured:
# [1] = test system: PEO1 cells; assay: Cytogenetics, metaphase spreads, PEO1; type: cell-based
# Description: FIG. 4. PARP inhibitor-induced chromosomal derangement and genomic instability is dependent on DNA-PK activity. (A) Representative images of metaphase spreads from cells treated with diluent (0.2% DMSO), 500 nM DNA-PKi, 2.5 μM ABT-888, or both ABT-888 and DNA-PKi for 72 hours. Chromosomal breaks are marked with arrowheads and radial structures are marked with asterisks. (B) Quantitation of data from (A) showing average radial chromosomes per cell (n=100 for each data point pooled from two separate experiments, error bars represent SEM). † indicate values that are zero. (C) Calculated mutagenesis frequency in BRCA2-mutant CAPAN1 cells after control treatment or exposure to ABT-888 with or without 250 nM DNA-PKi. Each bar represents the mean±SEM of 5-8 plates.
# Cell harvest and metaphase slide preparation were performed for metaphase analysis as described elsewhere (Fletcher, Curr. Protoc. Hum. Genet., 2:Unit 10.13. (1994)). Fifty non-banded metaphases from each cell line were analyzed and scored for radial formations as well as major and minor breakage according to the International System of Human Cytogenetic Nomenclature. Images of cells with breakage were captured using a CytoVision Imaging System (Genetix; New Milton, UK).
# [2] = test system: BRCA2-deficient PEO1 cells; assay: Clonogenic assay, PEO1; type: cell-based
# Description: FIG. 5. NHEJ is a major contributor to PARP inhibitor effects in BRCA2-deficient cells. (A) Western blots showing knockdown of Ku80 in PEO1 and PEO4 cells. (B) Clonogenic survival of PEO1 and PEO4 cells from (A), which were treated with the indicated ABT-888 concentration for 72 hours, washed, and allowed to form colonies. (C) Western blots following treatment with siRNA targeting luciferase (control), Ku80, PARP1, or both Ku80 and PARP1. (D) Clonogenic viability of PEO 1 and PEO4 cells from (C). Following knockdown, cells were plated onto triplicate plates and allowed to form colonies. (E) Clonogenic survival of PEO1 cells following Artemis knockdown. After treatment with the indicated siRNA, plates were treated with indicated concentration of ABT-888 for 72 hours, washed, and allowed to form colonies. Inset, Western blots showing knockdown using luciferase (control) or Artemis siRNAs in PEO1 cells. (F) Clonogenic survival of PEO1 and PEO4 cells treated for 72 hours with ABT-888 in combination with diluent or 500 nM DNA-PKi. All results are reported as means of triplicate plates±SEM, and are representative of 3 independent experiments.
# FIG. 13. DNA-PK inhibition diminishes the lethality of multiple PARP inhibitors in PEO1 cells. (A) Representative clonogenic plates after PEO1 cells were treated with ABT-888 (0, 5, or 20 μM) with or without 500 nM DNA-PKi. (B, C) Bar graphs comparing clonogenic survival of PEO1 cells exposed to two PARP inhibitors with or without 500 nM DNA-PKi. The PARP inhibitors used for these assays are ABT-888 (B) and AZD2281/olaparib (C). Results are reported as mean±SEM of triplicate plates.
# FIG. 18. Artemis knockdown confers resistance to PARP inhibition and cisplatin in BRCA2-deficient/mutant cells. Clonogenic survival assays of PEO1 shRNA lines continuously exposed to ABT-888 (A) or cisplatin (B), or exposed to ionizing radiation (C). (D-F) Clonogenic survival assays of CAPAN1 shRNA lines exposed to ABT-888 (D), cisplatin (E), or exposed to ionizing radiation (F).
# Colony formation assays were performed on siRNA-transfected PEO1 and PEO4 cells 48 hours after the second transfection. Cells were trypsinized and plated at 750 cells/plate in triplicate 60-mm dishes containing medium A, allowed to grow 10-14 days, and stained with Coomassie Brilliant Blue. Colonies containing ≧50 cells were scored manually. To assess methyl methanesulfonate (MMS) sensitivity, PEO1 or PEO4 cells were incubated for 48 hours after the second siRNA treatment, plated onto 60-mm dishes, allowed to adhere for 4 hours, exposed to the indicated concentration of MMS (Sigma-Aldrich) for 1 hour, washed with sterile RPMI 1640, and allowed to grow into colonies in medium A. For drug treatment, cells (without siRNA) were allowed to adhere for 4-6 hours, then treated with the indicated concentrations of ABT-888 and/or AZ12594248 for 72 hours. Following drug treatment, cells were washed with drug-free RPMI 1640, cultured for 10-14 days in medium A, and stained. For HCC1937 and HCC1937/BRCA1 cells, a similar procedure was used with several changes: 1000 cells were plated in medium B, and treatment was continuous for 16-20 days. M059J and M059J+DNA-PKcs were plated at 1000 cells per plate in medium C and treated for 48 hours. GM16666 and 16667 were plated at 1000 cells per plate in medium D and treated for 48 hours.
SMILES,"chromosome breaks and aberrant radial structures ([1]; 2.5 μM ABT-888, 72 hours)","clonogenic survival ([2]; PEO1 cells, 72 hours)","clonogenic survival with ABT-888 after siRNA depletion of Artemis ([2]; PEO1 cells, Artemis siRNA, 72 hours)","clonogenic survival with ABT-888 after Ku80 knockdown ([2]; PEO1 cells, Ku80 siRNA, 72 hours)","clonogenic sensitivity after stable Artemis knockdown ([2]; PEO1 shRNA lines, continuous exposure)","effect on ABT-888-induced chromosome breaks and radial structures ([1]; 500 nM DNA-PKi with 2.5 μM ABT-888, 72 hours)","effect of co-administration on AZD2281 clonogenic lethality ([2]; PEO1 cells, 500 nM DNA-PKi)","effect of co-administration on ABT-888 clonogenic lethality ([2]; PEO1 cells, 500 nM DNA-PKi, 72 hours)"
C[C@]1(c2nc3c(C(N)=O)cccc3[nH]2)CCCN1 [ABT-888],induced the formation of chromosome breaks and aberrant radial structures,decreased the clonogenic survival,reversed the lethality,markedly enhanced the survival,conferred resistance,,,
CCN1CCN(CC(=O)Nc2ccc(-c3cccc4c(=O)cc(N5CCOCC5)oc34)c3sc4ccccc4c23)CC1 [AZ 12594248],,,,,,substantially diminished this effect,diminished the effects,diminished the effects
